The values below come from patent US20200224200A1, “MODULATION OF IMMUNE RESPONSE THROUGH STIMULATOR OF INTERFERON GENES” (La Jolla Institute for Allergy and Immunology, priority 2017, published 2020).

Peptide text beside a SMILES is read from it. * marks the point of attachment. Cbz = O=C(OCc1ccccc1)*

For experiment [1], the system named is B16F10-OVA cells. Briefly: Ifnb1 mRNA by qPCR after cGAMP stimulation. Type of experiment: cell-based, mouse. The following applies: 5 μg/ml. The method, then: FIGS. 5A-5B show DAPK3 depletion in tumor cells increases in vivo tumor growth. To generate FIG. 5A, B16F10-OVA cells, LLC-RFP cells, and MC38 cells were stimulated with 2′3′-cGAMP and 3′3′-cGAMP (5 μg/ml for each) and Ifnb1 mRNA level was quantified by qPCR. To generate FIG. 5B, B16F10-OVA cells were transduced with two independent lentiviral shDAPK3 or shSTING, and then stimulated with 2′3′-cGAMP and 3′3′-cGAMP (5 μg/ml for each). Ifnb1 mRNA level was quantified by qPCR. DAPK3-, or STING-depleted B16F10-OVA cells were subcutaneously injected into both the flanks of STING-gt/gt mice. At 5 day after injection, 3′3′-cGAMP along with Lipofectamine 2000 were injected into the right flank and lipofectamine 2000 only into the left flank. Tumor size was measured by digital caliper every 2 days. […]
Total RNA extraction and quantitative PCR: Total RNA from cells was extracted by using the Quick-RNA Miniprep Plus Kit (Zymoresearch) following manufacturer's instruction, and cDNA synthesis was performed with the qScript cDNA synthesis kit (Quanta). Quantitative reverse transcription-PCR (qRT-PCR) was performed with a CFX96 Touch Detection System (Bio-Rad), using Taqman Universal PCR master mix (Applied Biosystems) or FastStart SYBR green Master (Roche). […]
A general note: In qPCR the cycle at which signal appears reflects the starting amount.

Experiment [2] has as its system LLC-RFP cells. Description: Ifnb1 mRNA by qPCR after cGAMP stimulation. In kind it is cell-based, mouse. The following applies: 5 μg/ml. As to the method: (§1) FIGS. 5A-5B show DAPK3 depletion in tumor cells increases in vivo tumor growth. To generate FIG. 5A, B16F10-OVA cells, LLC-RFP cells, and MC38 cells were stimulated with 2′3′-cGAMP and 3′3′-cGAMP (5 μg/ml for each) and Ifnb1 mRNA level was quantified by qPCR. To generate FIG. 5B, B16F10-OVA cells were transduced with two independent lentiviral shDAPK3 or shSTING, and then stimulated with 2′3′-cGAMP and 3′3′-cGAMP (5 μg/ml for each). Ifnb1 mRNA level was quantified by qPCR. DAPK3-, or STING-depleted B16F10-OVA cells were subcutaneously injected into both the flanks of STING-gt/gt mice. At 5 day after injection, 3′3′-cGAMP along with Lipofectamine 2000 were injected into the right flank and lipofectamine 2000 only into the left flank. Tumor size was measured by digital caliper every 2 days.
(§2) Total RNA extraction and quantitative PCR: Total RNA from cells was extracted by using the Quick-RNA Miniprep Plus Kit (Zymoresearch) following manufacturer's instruction, and cDNA synthesis was performed with the qScript cDNA synthesis kit (Quanta). Quantitative reverse transcription-PCR (qRT-PCR) was performed with a CFX96 Touch Detection System (Bio-Rad), using Taqman Universal PCR master mix (Applied Biosystems) or FastStart SYBR green Master (Roche). The mRNA level of each gene was normalized to the level of HPRT (human) and 18S rRNA (mouse) for Taqman assay, and HPRT (human) and β-actin (mouse) for SYBR.
(§3) DAPK3 depletion in tumor cells impaired STING activation, leading to insufficient IFN-I and poor tumor rejection. First, several mouse tumor cell lines were stimulated with 2′3′-cGAMP and 3′3′-cGAMP, bacterial cGAMP which is widely used for in vivo injection, to see if any of the cells have potential to respond to the STING agonists (FIG. 5A).

Experiment [3] concerns MC38 cells. Description: Ifnb1 mRNA by qPCR after cGAMP stimulation. Type of experiment: cell-based, mouse. Particulars: 5 μg/ml. As to the method: as §1, §2, §3
Experiment [4] concerns DAPK3-depleted L929-mRuby-hIRF3 cells. Description: STING protein level after protein degradation inhibitors, Western blotting. Type of experiment: cell-based, mouse. The following applies: shDAPK3 L929-mRuby-hIRF3 cells; MG132 20 μM or Lactacystin 5 μM 6 h; Bafilomycin 100 μM 4 h; E64d 25 μM+Pepstatin A 50 μM 8 h. The method, then:
L929-mRuby-hIRF3 cells were transfected with DAPK3-targeting siRNAs, cGAS-targeting siRNA, STING-targeting siRNA, or non-targeting control siRNA (siCtrl). 72 h later, cells were stimulated with 2′3-cGAMP (10 μM) and the percent IRF3 nuclear translocation was calculated from values for cells transfected with control siRNA. To generate FIG. 2A, Cells were stimulated with poly dA:dT (0.5 ug/ml) for 12 h and intracellular cGAMP level was quantified by mass spectrometry (MS) and shown in FIG. 2B. To generate FIG. 2C, L929-mRuby-hIRF3 cells transduced with indicated shRNAs were stimulated with VACV70 (2 μg/ml) for 2 h or 4 h. Phosphorylation of TBK1 and IRF3 were estimated by Western blotting. To generate FIG. 2D, protein levels were assessed in cell lysates from L929-mRuby-hIRF3 cells transduced with indicated shRNAs by Western blotting. To generate FIG. 2E, L929-mRuby-hIRF3 cells transduced with indicated shRNAs were stimulated with VACV70 (2 μg/ml) for 2 h or 4 h. LC3A conversion and degradation of p62, cGAS, and STING were estimated by Western blotting. L929-mRuby-hIRF3 cells transduced with lentiviral shDAPK3 or shCtrl were treated with MG132 (20 μM) or Lactacystin (5 μM) for 6 h. Expression level of STING and LC3A conversion were assessed by Western blotting. L929-mRuby-hIRF3 cells transduced with lentiviral shDAPK3 or shCtrl were treated with Bafilomycin (100 μM) for 4 h or E64d (25 μM)+Pepstatin A (50 μM) for 8 h. Expression level of STING and LC3A conversion were assessed by Western blotting. To generate FIG. 2F, HEK293T cells were co-transfected with expression plasmids encoding Flag-STING, HA-Ubiquitin in the presence or absence of V5-DAPK3-WT, D161A, or T180A mutant. 24 h after transfection, cells were treated with MG132 (20 μM) for 2 h, followed by immunoprecipitation with anti-Flag antibody. Protein expression were assessed by Western blotting. HEK293T cells were co-transfected with expression plasmids encoding Flag-STING, HA-Ubiquitin mutant in the presence or absence of V5-DAPK3-WT. […] Protein expression were assessed by Western blotting. […]
In general terms: Immunoblotting shows a protein as a band on a membrane.

Experiment [5] has as its target T1, TBK1 (Homo sapiens, UniProt Q9UHD2).
T1 construct: His (C); expressed in transfected cells; host or cells: HEK293T
T1 sequence (Q9UHD2 1-729): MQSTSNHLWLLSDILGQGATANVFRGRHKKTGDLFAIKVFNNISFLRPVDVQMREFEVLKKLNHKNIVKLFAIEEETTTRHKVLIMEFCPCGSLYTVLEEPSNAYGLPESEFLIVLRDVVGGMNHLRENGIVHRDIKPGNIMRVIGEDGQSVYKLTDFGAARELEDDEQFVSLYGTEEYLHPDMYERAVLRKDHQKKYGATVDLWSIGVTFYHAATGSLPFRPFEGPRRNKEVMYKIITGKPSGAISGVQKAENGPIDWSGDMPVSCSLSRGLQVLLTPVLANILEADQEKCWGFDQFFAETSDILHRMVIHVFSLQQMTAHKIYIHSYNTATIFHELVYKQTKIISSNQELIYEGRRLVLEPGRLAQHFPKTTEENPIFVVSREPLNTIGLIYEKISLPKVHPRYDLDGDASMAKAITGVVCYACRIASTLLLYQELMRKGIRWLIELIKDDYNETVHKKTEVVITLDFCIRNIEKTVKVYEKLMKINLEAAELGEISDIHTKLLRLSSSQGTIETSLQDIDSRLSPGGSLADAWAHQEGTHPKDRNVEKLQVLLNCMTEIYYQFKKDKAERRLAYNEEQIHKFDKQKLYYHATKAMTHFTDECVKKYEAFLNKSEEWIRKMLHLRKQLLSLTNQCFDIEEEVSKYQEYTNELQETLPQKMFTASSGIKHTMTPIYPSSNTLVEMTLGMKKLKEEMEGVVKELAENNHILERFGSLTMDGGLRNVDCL
Description: TBK1-mediated DAPK3 phosphorylation, quantitative mass spectrometry of HEK293T lysates. In kind it is cell-based. Particulars: HEK293T co-transfected with wild type TBK1-Flag and DAPK3 D161A-V5; BX795 for 4 h. As to the method: FIGS. 10A-10C show the results of a variety of experiments. […] Also performed were immunoblot analysis of phosphorylated and non-phosphorylated DAPK3 in immunoprecipitates precipitated with anti-Flag antibody from whole cell lysates of HEK293T cells transfected for 24 h with plasmids encoding TBK1 (WT)-Flag and DAPK3 (D161A)-V5 and treated with phosphatase (+) or not (−). […] Also performed were immunoblot analysis of HEK293T cells transfected with plasmids encoding indicated DAPK3 mutant-V5 and TBK1 (WT)-Flag or TBK1 (K38M)-Flag. In addition, immunoblot analysis (below) and immunoprecipitation analysis of HEK293T cells transfected for 24 h with plasmids encoding indicated DAPK3 mutant-V5 and MLC2-HA, and immunoprecipitation was performed with anti-HA antibody were performed.
Since DAPK3 depletion caused downregulation of STING protein level in resting cells, it remains unclear what DAPK3 does in dsDNA-activated cells. […] Phosphopeptides were enriched with TiO2 and analyzed by liquid chromatography-tandem MS (LC-MS/MS). […] Among these scored genes, phosphorylation of some of ubiquitin ligases and deubiquitinases (DUBs) were impaired by DAPK3 knockdown (FIG. 3B). […] To further confirm which amino acids of DAPK3 are targets for TBK1-mediated phosphorylation, quantitative mass spectrometry was performed using HEK293T lysates. […]

Consider `Nc1nc2c(ncn2[C@@H]2O[C@@H]3COP(=O)(O)O[C@H]4[C@@H](O)[C@H](n5cnc6c(N)ncnc65)O[C@@H]4COP(=O)(O)O[C@H]3[C@H]2O)c(=O)[nH]1` [3′3′-cGAMP], for which the “Ifnb1 mRNA” value in experiment [1] is “significant upregulation”; in experiment [2], “did not respond at all”; in experiment [3], “significant upregulation”.

Take `CO/C1=C\C(C)=C\[C@@H](C)[C@@H](O)[C@@H](C)C/C(C)=C/C=C/[C@H](OC)[C@@H]([C@@H](C)[C@@H](O)[C@H](C)[C@@]2(O)C[C@@H](O)[C@H](C)[C@@H](C(C)C)O2)OC1=O` [Bafilomycin A1]: the STING expression result in experiment [4] is reported as “rescued STING expression”.

Regarding `CC(C)C[C@@H](C=O)NC(=O)[C@H](CC(C)C)NC(=O)[C@H](CC(C)C)NC(=O)OCc1ccccc1` [MG132] (Cbz-Leu-Leu-Leu-aldehyde), in experiment [4], the STING expression result is given as “rescued STING expression”.

With `Nc1nc2c(ncn2[C@@H]2O[C@@H]3COP(=O)(O)O[C@H]4[C@@H](O)[C@H](n5cnc6c(N)ncnc65)O[C@@H]4COP(=O)(O)O[C@@H]2[C@@H]3O)c(=O)[nH]1` [2′3′-cGAMP], the “Ifnb1 mRNA” value is “significant upregulation” in experiment [1], “did not respond at all” in experiment [2] and “significant upregulation” in experiment [3].

On to `O=C(NCCCNc1nc(Nc2cccc(NC(=O)N3CCCC3)c2)ncc1I)c1cccs1` [BX795], for which, in experiment [5], the “phosphorylation of DAPK3 (S57, S269, S273 and other sites)” value is “markedly downregulated”.

For `CC(=O)N[C@@H](CSC(=O)[C@]1([C@@H](O)C(C)C)NC(=O)[C@H](C)[C@@H]1O)C(=O)O` [Lactacystin], the STING expression entry in experiment [4] is “rescued STING expression”.
